Laboratory results: patent US8455544B2, “Synthetic triterpenoids and methods of use in the treatment of disease” (Reata Pharmaecuticals, Inc., priority 2008, dated 2013)

Tests used:
[1] = Serum creatinine in toxicology study, dogs; type: in vivo, beagle dogs; conditions: oral, daily for three months
Procedure: FIGS. 3a-d—RTA 402 reduces serum creatinine levels in monkeys, dogs, and rats. (FIG. 3a) Cynomolgus monkeys were administered RTA 402 orally at the indicated doses once daily for 28 days. The percent reduction of serum creatinine on Day 28 in RTA 402-treated monkeys relative to vehicle-treated control monkeys is shown. (FIG. 3b) RTA 402 was administered orally to beagle dogs at the indicated doses daily for three months. Control animals received vehicle (sesame oil). The percent change in serum creatinine at the three-month time point relative to baseline is shown. (FIG. 3c) Sprague-Dawley rats were administered RTA 402 orally at the indicated doses once daily for a period of one month. The percent reduction of serum creatinine at study completion in RTA 402-treated rats relative to vehicle-treated control rats is shown. (FIG. 3d) Sprague-Dawley rats were administered the amorphous form of RTA 402 orally at the indicated doses once daily for a period of three months. The percent reduction of serum creatinine at study completion in RTA 402-treated rats relative to vehicle-treated control rats is shown. […] For example, a reading of −15 on this axis indicates a 15% reduction in serum creatinine.
Serum creatinine has been measured in several animal species treated with RTA 402 in the course of toxicology studies. […]

[2] = test system: NQO1 in Hepa1c1c7 murine hepatoma cells; conditions: concentration required to induce a two-fold increase in expression of NQO1, Hepa1c1c7 cells; cited from earlier work
[3] = test system: patients with diabetic nephropathy; test: Phase II clinical trial in patients with diabetic nephropathy (type 2 diabetes with CKD); type: in vivo, human
Procedure: Serum creatinine has also been measured in patients with chronic kidney disease (CKD) enrolled in an open label Phase II clinical trial of RTA 402. These patients received RTA 402 once daily at three dose levels, 25 mg, 75 mg and 150 mg, for a total of 28 days.
A primary outcome measure for this study is determining the effects of RTA 402 administered orally at the three dose strengths on the glomerular filtration rate (as estimated by the MDRD formula) in patients with diabetic nephropathy.
Secondary outcome measures include: (1) an evaluation of the safety and tolerability of oral RTA 402 administered orally at the three different doses, in this patient population; (2) an evaluation of the effects of RTA 402 administered orally at the three dose strengths on the serum creatinine level, creatinine clearance, and urine albumin/creatinine ratio in patients with diabetic nephropathy; (3) an evaluation of the effects of RTA 402 administered orally at the three dose strengths on hemoglobin A1c in all patients enrolled and on insulin response by the hyperinsulinemic euglycemic clamp test in patients enrolled at only one of the study centers; (4) an evaluation of the effects of RTA 402 at the three different doses on a panel of markers of inflammation, renal injury, oxidative stress, and endothelial cell dysfunction.
The patient population selected for this study all had type 2 diabetes with CKD. Most had been diagnosed with poor glycemic control for two decades. CKD was established through elevated serum creatinine (SCr) levels. Most of the patients had been diagnosed with cardiovascular disease (CVD) and most were receiving standard of care (SOC) treatment for diabetes, CKD and CVD, (e.g., insulin, ACEI/ARB, β-blocker, diuretic, and statin). The baseline demographic can be summarized as follows:
The patient inclusion criteria were as follows: (1) diagnosis of type 2 diabetes; (2) serum creatinine in women 1.3-3.0 mg/dL (115-265 μmol/L), inclusive, and in men 1.5-3.0 mg/dL (133-265 μmol/L), inclusive; (3) patient must agree to practice effective contraception; (4) patient must have a negative urine pregnancy test within 72 hours prior to the first dose of study medication; (5) patient is willing and able to cooperate with all aspects of the protocol and is able to communicate effectively; (6) patient is willing and able to provide written informed consent to participate in this clinical study. […]

RAW264.7 macrophages = test: Cell viability, WST-1 reagent; type: cell-based; conditions: Mus musculus, RAW264.7 (20 ng/ml IFNγ)
[4] = test system: ischemia-reperfusion induced renal damage; test: Mouse model of ischemic acute renal failure (ischemia-reperfusion); type: in vivo
Procedure: FIGS. 1a-d—RTA 402 reduces renal damage following ischemia-reperfusion. Mice were administered RTA 402 at 2 mg/kg or simply the vehicle (sesame oil) daily by oral gavage beginning on […]. On Day 0, a clamp was placed on the left renal artery for 17 minutes and then removed to induce ischemia-reperfusion. (FIG. 1a) On Day 1, blood was collected from animals that were subjected to clamping and “sham” control animals that underwent surgery without clamping of the renal artery. Blood urea nitrogen (BUN) levels were measured as a surrogate for renal damage. (FIGS. 1b-d) Sections of kidneys from RTA 402-treated or vehicle-treated mice were scored for histological damage (FIGS. 1b & 1d) and inflammation (FIG. 1c). (FIG. 1d) Black arrows (vehicle group) show two of many severely damaged tubules in the outer medulla. Red arrows (RTA 402 group) show two of many undamaged tubules in the outer medulla.
In a mouse model of ischemic acute renal failure, the renal artery is clamped for approximately twenty minutes. After this time, the clamp is removed and the kidney is reperfused with blood. Ischemia-reperfusion results in renal damage and decreased renal function which can be assessed by blood urea nitrogen (BUN) levels, which become elevated following renal damage. As shown in FIGS. 1a-d, surgically-induced ischemia-reperfusion increased BUN levels by approximately 2-fold.

COC(=O)[C@]12CCC(C)(C)C[C@H]1[C@H]1C(=O)C=C3[C@@]4(C)C=C(C#N)C(=O)C(C)(C)[C@@H]4CC[C@@]3(C)[C@]1(C)CC2 [RTA 402, methyl-2-cyano-3,12-dioxooleana-1,9-dien-28-oic acid]
Serum creatinine levels relative to baseline [1]: Significant reductions | NQO1 CD [2]: 1.0 nM | A1c reduction ([3]; 28 days, elevated baseline (≧7.0 at baseline), n=16): 0.50 | Hemoglobin % A1c reduction ([3]; 28 days, elevated baseline (≧7.0 at baseline), n=35): 0.50 % A1c | A1c reduction ([3]; 28 days, intent-to-treat, n=21, on top of standard of care): 0.34 | Hemoglobin % A1c reduction ([3]; 28 days, intent-to-treat, n=56): approximately 0.25 % A1c | GFR increase, response rate ([3]; 28 days, n=22): 86% | GFR improvement ([3]; 28 days, patients with Stage 4 renal disease): > 30% | Mean % A1c reduction ([3]; 28 days, patients with advanced (Stage 4) renal disease (GFR 15-29 ml/min)): approximately 0.77 % A1c | Eight measures of renal function and status ([3]; serum creatinine based eGFR, creatinine clearance, BUN, serum phosphorus, serum uric acid, Cystatin C, Adiponectin, Angiotensin II): improve significantly | IC50 (RAW264.7 macrophages): 80 nM | Histological measures of kidney damage and inflammation ([4]; 2 mg/kg orally once daily): significantly improved | BUN levels relative to vehicle-treated animals ([4]; 2 mg/kg orally once daily beginning two days prior to surgery, p<0.01): significantly reduced
